Data from ChEMBL document CHEMBL3632608, “Effects of alkyl side chains and terminal hydrophilicity on vitamin D receptor (VDR) agonistic activity based on the diphenylpentane skeleton” (Bioorg Med Chem Lett, 2015).
pEC50: −log10 of the molar value. Active and inactive are the calls of the source. No cut-off for these calls is given here.

What was measured:
Type in all cases: cell-based
Vitamin D3 receptor = biological target: T1, Vitamin D3 receptor (Homo sapiens, UniProt P11473); experiment: Agonist activity at human VDR expressed in HEK293 cells co-expressing CMX-GAL4N and TK-MH100x4-LUC assessed as induction of transcriptional activity by beta-galactosidase reporter gene assay; conditions: for EC50: hek293; for pEC50: read-out: EC50
T1 sequence (P11473 whole entry): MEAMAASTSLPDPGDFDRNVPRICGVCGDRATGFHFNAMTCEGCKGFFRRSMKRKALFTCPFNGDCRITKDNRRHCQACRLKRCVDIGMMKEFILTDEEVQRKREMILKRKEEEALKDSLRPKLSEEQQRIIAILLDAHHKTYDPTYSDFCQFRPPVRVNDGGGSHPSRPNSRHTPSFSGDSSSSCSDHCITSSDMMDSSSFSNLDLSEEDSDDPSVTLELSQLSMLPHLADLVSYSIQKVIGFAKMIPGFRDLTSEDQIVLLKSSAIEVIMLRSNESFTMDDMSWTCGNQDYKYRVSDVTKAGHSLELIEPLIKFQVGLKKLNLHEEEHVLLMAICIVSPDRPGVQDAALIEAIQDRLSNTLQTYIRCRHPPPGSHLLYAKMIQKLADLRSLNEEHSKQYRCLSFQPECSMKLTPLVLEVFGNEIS

[1] = biological target: T2, Vitamin D3 receptor (Homo sapiens) (UniProt P11473); experiment: Agonist activity at human VDR expressed in HEK293 cells co-expressing CMX-GAL4N and TK-MH100x4-LUC assessed as induction of transcriptional activity at 10 uM by beta-galactosidase reporter gene assay relative to 1alpha,25(OH)2VD3
T2 sequence (whole entry): T1 sequence (P11473 whole entry)

[2] = biological target: T2, Vitamin D3 receptor (Homo sapiens); experiment: Antagonist activity at human VDR expressed in HEK293 cells co-expressing CMX-GAL4N and TK-MH100x4-LUC assessed as inhibition of 1alpha,25(OH)2VD3-induced transcriptional activity up to 10 uM by beta-galactosidase reporter gene assay
[3] = biological target: T2, Vitamin D3 receptor (Homo sapiens); experiment: Agonist activity at VDR in human HL60 cells assessed as induction of cell differentiation at 10 uM by NBT reduction assay; conditions: HL-60
[4] = biological target: T2, Vitamin D3 receptor (Homo sapiens); experiment: Agonist activity at human VDR expressed in HEK293 cells co-expressing CMX-GAL4N and TK-MH100x4-LUC assessed as induction of transcriptional activity at 3 uM by beta-galactosidase reporter gene assay relative to 1alpha,25(OH)2VD3

| EC50 (Vitamin D3 receptor) | Activity [1] [%] | inhibition [2] | Activity [3] [%] | Activity [4] [%] | pEC50 (Vitamin D3 receptor) | SMILES |
| --- | --- | --- | --- | --- | --- | --- |
| – | – | inactive | 18.8 | 40 | < 5.52 | CCC(CC)(c1ccc(OC[C@@H](O)CO)c(C)c1)c1ccc(OC[C@@H](O)C(C)(C)OCCCCCCCCO)c(C)c1 |
| Not Active | – | – | – | – | – | CCCCCCCCCCOC(C)(C)[C@H](O)COc1ccc(C(CC)(CC)c2ccc(OC[C@@H](O)CO)c(C)c2)cc1C |
| – | 100 | inactive | 37.6 | 77 | 5.92 | CCC(CC)(c1ccc(OC[C@@H](O)CO)c(C)c1)c1ccc(OC[C@H](O)C(C)(C)OCCCCCCCCO)c(C)c1 |

More lines, now with the values behind:

| SMILES | EC50 (Vitamin D3 receptor) | Activity [1] [%] | inhibition [2] | Activity [3] [%] | Activity [4] [%] | pEC50 (Vitamin D3 receptor) |
| --- | --- | --- | --- | --- | --- | --- |
| CCCCCCCCOC(C)(C)[C@H](O)COc1ccc(C(CC)(CC)c2ccc(OC[C@@H](O)CO)c(C)c2)cc1C | Not Active | – | – | – | – | – |
| CCCCCCOC(C)(C)[C@@H](O)COc1ccc(C(CC)(CC)c2ccc(OC[C@@H](O)CO)c(C)c2)cc1C | – | 47 | inactive | 25.1 | 37 | 5.82 |
| CCCCCCCCCCOC(C)(C)[C@@H](O)COc1ccc(C(CC)(CC)c2ccc(OC[C@@H](O)CO)c(C)c2)cc1C | Not Active | – | – | – | – | – |
| CCCCCCCCOC(C)(C)[C@@H](O)COc1ccc(C(CC)(CC)c2ccc(OC[C@@H](O)CO)c(C)c2)cc1C | Not Active | – | – | – | – | – |
| CCCCCCOC(C)(C)[C@H](O)COc1ccc(C(CC)(CC)c2ccc(OC[C@@H](O)CO)c(C)c2)cc1C | – | 22 | inactive | – | 19 | < 5.00 |
